Legend:
[1] = target: T1, Amyloid beta 40 (Aβ40) aggregates (Homo sapiens, UniProt P05067); test: FRET with CRANAD-5 on Aβ[…] aggregates; apparent Kd printed in Results; format: binding; settings: cited from earlier work
T1 construct: gene APP; synthetic amyloid-β peptide (1-40), aggregated

[2] = target: T1, Amyloid beta 40 (Aβ40) aggregates; test: fluorescence titration of Aβ[…] aggregates, one-site binding fit

T1 sequence (P05067 672-711 limits assumed): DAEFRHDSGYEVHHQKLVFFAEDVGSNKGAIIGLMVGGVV

Row | Kd [2] [µM] | SMILES | Kd [1] [µM]
1 | – | CN(C)c1ccc(/C=C/C2=CC(/C=C/c3ccc(N(C)C)cc3)=[O+][B-](F)(F)O2)cc1 [CRANAD-2] | 0.038
2 | 0.0105 ± 0.0025 | CN(C)c1ccc(/C=C/C(=O)/C=C(O)/C=C/c2ccc(N(C)C)cc2)cc1 [CRANAD-5] | –

Source: article PMC3084834, “Non-Conjugated Small Molecule FRET for Differentiating Monomers from Higher Molecular Weight Amyloid Beta Species” (PLoS ONE, 2011)
